Results as given in PubChem BioAssay AID2060897 (Molecular Pharmacology Branch, DTP, NCI, 2025).
Blank lines part the entries; values can stand above or below the molecule they belong to.

System: 966289-007-R4-J1-PDC complex spheroid viability
Assay: Anticancer human tumor 966289-007-R4-J1-PDC patient-derived pancreatic adenocarcinoma cell line growth inhibition [RAS]
Conditions: for IC50: curve of first compound; for viability, T/C: stronger effect = lower value
Summary of the method: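 Multi-cell-type spheroids: tumor cells plus HUVEC endothelial cells and mesenchymal stem cells. RAS-pathway inhibitors were combined with targeted agents, each dosed in half-log steps down from clinical Cmax, or from 10 microM when Cmax was unknown.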
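Note: spheroids exposed to agents for one week before readout.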
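Throughout, for viability, T/C: percent viability relative to DMSO vehicle control wells as 100%.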

IC50 (second compound 0.000949 µM): > 1000 nM
IC50 (second compound 0.003 µM): > 1000 nM
IC50 (second compound 0.00949 µM): > 1000 nM
IC50 (second compound 0.03 µM): > 1000 nM
IC50 (second compound 0.0949 µM): > 1000 nM
IC50 (second compound 0.3 µM): > 1000 nM
SMILES: C=CC(=O)N1CCN(c2nc(OCC3CCCN3C)nc3c(F)c(-c4nc(N)cc(C)c4C(F)(F)F)c(Cl)cc23)C(C)C1 (centres undefined) + CCn1c(-c2cccnc2C(C)OC)c2c3cc(ccc31)N1CCOC(CC(NC(=O)C(C(C)C)N(C)C(=O)C3(F)CCN(C(=O)C#CC(C)(C)N(C)C)CC3)C(=O)N3CCCC(N3)C(=O)OCC(C)(C)C2)C1
viability, T/C (second compound 0.000949 µM, first compound 0.00316 µM): 94.7%
viability, T/C (second compound 0.000949 µM, first compound 0.01 µM): 74.5%
viability, T/C (second compound 0.000949 µM, first compound 0.0316 µM): 93.2%
viability, T/C (second compound 0.000949 µM, first compound 0.1 µM): 51%
viability, T/C (second compound 0.000949 µM, first compound 0.316 µM): 67.2%
viability, T/C (second compound 0.000949 µM, first compound 1 µM): 76.7%
viability, T/C (second compound 0.003 µM, first compound 0.00316 µM): 105%
viability, T/C (second compound 0.003 µM, first compound 0.01 µM): 66.2%
viability, T/C (second compound 0.003 µM, first compound 0.0316 µM): 90%
viability, T/C (second compound 0.003 µM, first compound 0.1 µM): 50.3%
viability, T/C (second compound 0.003 µM, first compound 0.316 µM): 85.4%
viability, T/C (second compound 0.003 µM, first compound 1 µM): 69.7%
viability, T/C (second compound 0.00949 µM, first compound 0.00316 µM): 56.1%
viability, T/C (second compound 0.00949 µM, first compound 0.01 µM): 81.2%
viability, T/C (second compound 0.00949 µM, first compound 0.0316 µM): 94.1%
viability, T/C (second compound 0.00949 µM, first compound 0.1 µM): 58.1%
viability, T/C (second compound 0.00949 µM, first compound 0.316 µM): 87.2%
viability, T/C (second compound 0.00949 µM, first compound 1 µM): 84%
viability, T/C (second compound 0.03 µM, first compound 0.00316 µM): 52%
viability, T/C (second compound 0.03 µM, first compound 0.01 µM): 65.9%
viability, T/C (second compound 0.03 µM, first compound 0.0316 µM): 79.7%
viability, T/C (second compound 0.03 µM, first compound 0.1 µM): 59.8%
viability, T/C (second compound 0.03 µM, first compound 0.316 µM): 102%
viability, T/C (second compound 0.03 µM, first compound 1 µM): 85.3%
viability, T/C (second compound 0.0949 µM, first compound 0.00316 µM): 61.3%
viability, T/C (second compound 0.0949 µM, first compound 0.01 µM): 76.5%
viability, T/C (second compound 0.0949 µM, first compound 0.0316 µM): 95%
viability, T/C (second compound 0.0949 µM, first compound 0.1 µM): 93.5%
viability, T/C (second compound 0.0949 µM, first compound 0.316 µM): 91%
viability, T/C (second compound 0.0949 µM, first compound 1 µM): 93.4%
viability, T/C (second compound 0.3 µM, first compound 0.00316 µM): 87.8%
viability, T/C (second compound 0.3 µM, first compound 0.01 µM): 90.8%
viability, T/C (second compound 0.3 µM, first compound 0.0316 µM): 106%
viability, T/C (second compound 0.3 µM, first compound 0.1 µM): 92.2%
viability, T/C (second compound 0.3 µM, first compound 0.316 µM): 127%
viability, T/C (second compound 0.3 µM, first compound 1 µM): 91.6%

IC50 (second compound 0.000949 µM): 4.98 nM
IC50 (second compound 0.003 µM): 5.32 nM
IC50 (second compound 0.00949 µM): 4.93 nM
IC50 (second compound 0.03 µM): 3.82 nM
IC50 (second compound 0.0949 µM): 4.06 nM
IC50 (second compound 0.3 µM): 2.89 nM
SMILES: CC1(C)CCC(Nc2ncc(C(F)(F)F)c(-c3c[nH]c4c(P(C)(C)=O)c(C#N)ccc34)n2)CN1 (centres undefined) + CCn1c(-c2cccnc2C(C)OC)c2c3cc(ccc31)N1CCOC(CC(NC(=O)C(C(C)C)N(C)C(=O)C3(F)CCN(C(=O)C#CC(C)(C)N(C)C)CC3)C(=O)N3CCCC(N3)C(=O)OCC(C)(C)C2)C1
viability, T/C (second compound 0.000949 µM, first compound 0.000949 µM): 136%
viability, T/C (second compound 0.000949 µM, first compound 0.003 µM): 75.5%
viability, T/C (second compound 0.000949 µM, first compound 0.00949 µM): 17.6%
viability, T/C (second compound 0.000949 µM, first compound 0.03 µM): 7.64%
viability, T/C (second compound 0.000949 µM, first compound 0.0949 µM): 5.45%
viability, T/C (second compound 0.000949 µM, first compound 0.3 µM): 7.38%
viability, T/C (second compound 0.003 µM, first compound 0.000949 µM): 90.5%
viability, T/C (second compound 0.003 µM, first compound 0.003 µM): 77.4%
viability, T/C (second compound 0.003 µM, first compound 0.00949 µM): 22.3%
viability, T/C (second compound 0.003 µM, first compound 0.03 µM): 7.6%
viability, T/C (second compound 0.003 µM, first compound 0.0949 µM): 5.79%
viability, T/C (second compound 0.003 µM, first compound 0.3 µM): 7.11%
viability, T/C (second compound 0.00949 µM, first compound 0.000949 µM): 83.3%
viability, T/C (second compound 0.00949 µM, first compound 0.003 µM): 75.1%
viability, T/C (second compound 0.00949 µM, first compound 0.00949 µM): 16.9%
viability, T/C (second compound 0.00949 µM, first compound 0.03 µM): 8.28%
viability, T/C (second compound 0.00949 µM, first compound 0.0949 µM): 5.11%
viability, T/C (second compound 0.00949 µM, first compound 0.3 µM): 5.09%
viability, T/C (second compound 0.03 µM, first compound 0.000949 µM): 72%
viability, T/C (second compound 0.03 µM, first compound 0.003 µM): 59.6%
viability, T/C (second compound 0.03 µM, first compound 0.00949 µM): 13.6%
viability, T/C (second compound 0.03 µM, first compound 0.03 µM): 5.23%
viability, T/C (second compound 0.03 µM, first compound 0.0949 µM): 4.63%
viability, T/C (second compound 0.03 µM, first compound 0.3 µM): 3.91%
viability, T/C (second compound 0.0949 µM, first compound 0.000949 µM): 71.8%
viability, T/C (second compound 0.0949 µM, first compound 0.003 µM): 65.2%
viability, T/C (second compound 0.0949 µM, first compound 0.00949 µM): 7.56%
viability, T/C (second compound 0.0949 µM, first compound 0.03 µM): 3.47%
viability, T/C (second compound 0.0949 µM, first compound 0.0949 µM): 3.17%
viability, T/C (second compound 0.0949 µM, first compound 0.3 µM): 3.37%
viability, T/C (second compound 0.3 µM, first compound 0.000949 µM): 62.6%
viability, T/C (second compound 0.3 µM, first compound 0.003 µM): 49.6%
viability, T/C (second compound 0.3 µM, first compound 0.00949 µM): 6.28%
viability, T/C (second compound 0.3 µM, first compound 0.03 µM): 2.91%
viability, T/C (second compound 0.3 µM, first compound 0.0949 µM): 2.13%
viability, T/C (second compound 0.3 µM, first compound 0.3 µM): 1.99%
